Experimental data as given in patent US9873889B2, “Increasing leaf longevity and disease resistance by altering salicylic acid catabolism” (priority 2013, dated 2018).

Assays:
recombinant S3H = target: T1, recombinant S3H (Arabidopsis thaliana, UniProt Q9ZSA8); test: Enzyme assay of recombinant S3H (substrate specificity and kinetics); type: biochemical; conditions: for S3H enzyme activity on substrate (in words): 30-min reaction under the same conditions as those for SA
T1 construct: His (N); made in house; host or cells: E. coli BL21 (DE3, pLys3)
T1 sequence (Q9ZSA8 1-349): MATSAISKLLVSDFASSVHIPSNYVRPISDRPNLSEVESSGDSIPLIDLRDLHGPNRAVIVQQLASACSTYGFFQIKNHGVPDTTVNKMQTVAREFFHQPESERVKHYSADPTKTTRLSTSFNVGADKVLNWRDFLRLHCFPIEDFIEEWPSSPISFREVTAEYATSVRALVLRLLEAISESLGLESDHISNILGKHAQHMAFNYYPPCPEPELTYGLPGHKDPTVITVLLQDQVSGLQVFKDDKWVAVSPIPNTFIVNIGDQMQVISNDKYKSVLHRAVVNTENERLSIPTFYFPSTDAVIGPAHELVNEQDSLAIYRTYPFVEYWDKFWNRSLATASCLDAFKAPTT
Procedure: (§1) The construct pET28a-S3H was introduced into E. coli BL21 (DE3, pLys3, Invitrogen, Carlsbad, Calif.). The bacterial cells containing pET28a-S3H were induced with 0.5 mM isopropyl β-D-1-thiogalactoside (IPTG) for 24 hr at 18° C., and were collected and disrupted by sonication in lysis buffer (20 mM Tris-Cl, pH7.5, 2 mM EDTA, 2 mM β-mercaptoethanol, 1 mM PMSF, 10 mM Imidazole, 0.1% Triton X-100, 20 mM sodium ascorbate). All subsequent purification procedures involving His-Bind® resin were performed at 4° C. according to the manufacturer (Novagen, Madison, Wis.). The recombinant protein concentration was quantified using Quick Start Bradford Dye Reagent (Biorad, Hercules, Calif.). 2 mM DTT was added to the enzyme solution and the protein was immediately kept in a −80° C. refrigerator.
(§2) The enzyme assay was performed using a method modified from Satio et al. (Saito et al., “Direct Evidence for Anthocyanidin Synthase as a 2-Oxoglutarate-Dependent Oxygenase: Molecular Cloning and Functional Expression of cDNA From a Red Forma of Perilla frutescens,” Plant J. 17(2):181-189 (1999), which is hereby incorporated by reference in its entirety). The reaction mixture (100 μl) contained 5 mM DTT, 4 mM sodium ascorbate, 1 mM 2-oxoglutaric acid, 0.4 mM FeSO4, 0.1 mg/ml catalase, 50 mM Tris-Cl pH8.0 or other buffer, 8-15 μg recombinant protein, various concentrations of SA. To determine the optimal temperature and pH for enzyme activity of S3H, the protein was incubated with 200 μM SA substrate in Tris-Cl buffer (pH8.0) at different temperatures for 15 min; or 500 μM SA substrate, in 50 mM Sodium citrate, Tris-Cl and Glycine buffers with different pH at 40° C. for 15 min. For enzyme kinetics analysis, various substrate SA concentrations ranging from 10 to 500 μM were used and the incubation proceeded for 6 min with pH 6.0. […] Mass spectra were recorded over 15 to 800 m/z in the negative mode. Km and Vmax were determined by Graphpad Prism 5 software using non-linear regression for Michaelis-Menten equation.

S3H [1] = conditions: 10 μM, Col-0 (Seedling), 3 hrs; cited from earlier work
S3H [2] = test: SA treatment of plants, RNA gel blot analysis of S3H expression; type: in vivo, Arabidopsis thaliana; conditions: 5 mM SA spray, Col-0 plants 25 DAG, 6 hours
Procedure: All chemicals used in this research were purchased from Sigma-Aldrich (St. Louis, Mo.), unless otherwise stated. Col-0 plants (25 DAG) were sprayed with 5 mM SA in 0.005% Silwet L-77 (Lehele Seeds, Tex.) or only 0.005% Silwet L-77 (mock). All rosette leaves of individual plants for RNA extraction were collected at different time points after the spray.
Total RNA extraction and RNA blot analysis were performed as described previously (He & Gan, “A Gene Encoding an Acyl Hydrolase Is Involved in Leaf Senescence in Arabidopsis,” Plant Cell 14(4):805-815 (2002), which is hereby incorporated by reference in its entirety). The DNA templates for probe labeling were amplified by the following different pairs of primers: S3H, G2956 and G2957; AtNAP, G3149 and G3150; SAG12, G10 and G246; SAG13, G9 and G16; EDS1, EDS1F and EDS1R; PAD4, PAD4F and PAD4R; PR1, PR1F and PR1R (FIG. 1E). The ethidium bromide staining of the RNA gels was used to show approximate amount of total RNA loading on each lane.

[3] = substrate: O=C(O)c1ccccc1O; test: Enzyme assay of recombinant S3H (substrate specificity and kinetics); type: biochemical, Arabidopsis thaliana; conditions: other: pH 6.0 and 40° C. for 6 min, mean ± SE of four replicates
Procedure: as §1, §2

With O=C(O)c1ccccc1 [Benzoic acid] the “S3H enzyme activity on substrate (in words)” value (recombinant S3H) was “did not have detectable activity”.

In the case of O=C(O)c1ccccc1O [Salicylic acid], the “Induction folds of S3H” value (S3H [1]) is given as 36.72, the Specific activity (recombinant S3H; pH 6.0 and 40° C. for 30 min, mean ± SE of three replicates, n.d. = not detectable) is given as 78.06 ± 9.75 nmol/mg/min and the “S3H expression after SA treatment (RNA gel blot)” value (S3H [2]) is given as “readily inducible”.

With Nc1ccccc1C(=O)O [Anthranilic acid] the “S3H enzyme activity on substrate (in words)” value (recombinant S3H) was “did not have detectable activity”.

B1: recombinant S3H (Arabidopsis thaliana) (protein)
chain: T1 sequence (Q9ZSA8 1-349)
notes: His (N); made in house; host or cells: E. coli BL21 (DE3, pLys3)
B1 gave a Km [3] of 58.29 µM, a Vmax [3] of 0.498 µmol/min/mg and a kcat/Km [3] of 6090 M⁻¹ s⁻¹.
